Reference: patent US20250135026A1, “Antibody Drug Conjugates” (BeiGene Switzerland GmbH, priority 2021, published 2025)
Where two headings read alike, the source gives them in different places.

Assays:
[1] = system: Calu-6; test: Compounds cellular killing (Cell Titer-Glo, 6 days, 2D); format: cell-based; conditions: for EC50 / Emax: Homo sapiens; for Emax: read-out: Emax
Experimental: (§1) The cell line was grown in a humidified 5% CO2 atmosphere at 37° C., and was regularly tested for the presence of mycoplasma with MycoAlert™ PLUS Mycoplasma Detection Kit (Lonza, LT07-710).
(§2) Incubation at 37° C., 5% CO2, overnight.
(§3) Adding the fresh growth-medium containing the varying concentrations of compounds, 50 ul/well.
(§4) Incubation at 37° C., 5% CO2, 6 days.
(§5) The cell viability detected by Cell Titer-Glo (Promega, G7573). Add 70 µL/well of CellTiter-Glo® Reagent in each well.
(§6) Allow the plates to incubate at room temperature for 10 minutes to stabilize luminescent signal.
(§7) Analyze with Microplate Reader.

[2] = system: A375; test: Compounds cellular killing (Cell Titer-Glo, 6 days, 2D); format: cell-based, human; conditions: for cell-killing activity compared with Dxd: A375; for EC50 / Emax: Homo sapiens; for Emax: read-out: Emax
Experimental: as §1, §2, §3, §4, §5, §6, §7

[3] = in vitro; conditions: PAMPA
[4] = PAMPA; conditions: free payload
[5] = system: MDA-MB-453; test: Payload cellular killing, 2D; format: cell-based, human; conditions: Homo sapiens, MDA-MB-453, 2D (HER3 +++); for Emax: read-out: Emax
Experimental: as §1

[6] = system: HCC1569; test: Payload cellular killing, 2D; format: cell-based; conditions: Homo sapiens, HCC1569, 2D (HER3 +++); for Emax: read-out: Emax
[7] = target: cathepsin B (Homo sapiens, UniProt P07858); test: Cathepsin B mediated rhodamine release; format: biochemical; conditions: 150 nM, 0.3 unit activated cathepsin B, pH 5.5, 37° C., FIG. 21
Experimental: CTSB was activated by incubation at ambient temperature for 15 min with 30 mM dithiothreitol and 15 mM EDTA at PH5.5.
Reaction buffer preparation: 25 mM sodium acetate & 1 mM EDTA, PH5.5.
Adding 150 nM NAcCys-13 & NAcCys-14 & NAcCys-15 & NAcCys-16 & NAcCys-17 and 0.3 unit activated cathepsin B mixture according to the experiment template.
The reaction mixtures were incubated at 37° C. immediately in the reader, then start reading using the kinetic set-up described. (TECAN SPARK: excitation/emission: 485/520 nm) (120 cycles, every one min) Gain Manual: 77%
Data analysis by GraphPad Prism 9 is illustrated in FIG. 21.

[8] = Calu-6, Table 27, free payload, Calu-6, 2D (HER3 neg.)
[9] = Calu-6, […], Table 29, payload, Clau6, 6d, 2D (Her3 neg)
[10] = Calu-6, Table 29, payload, Clau6, 6d, 2D (Her3 neg)
[11] = A-375, Table 27, free payload, A375, 2D (Her3 ++)
[12] = A-375, […], Table 29, payload, A375, 6d, 2D (Her3++)
[13] = A-375, Table 29, payload, A375, 6d, 2D (Her3++)
[14] = Calu-6, Table 28, payload, Calu-6, 2D (HER3 neg.)
[15] = A-375, Table 28, payload, A375, 2D (Her3 ++)

Compound	cell-killing activity compared with Dxd ([1]; Calu-6)	EC50 ([1]; Calu-6, Table 21, Calu-6) [nM]	EC50 [1, 8] [nM]	EC50 [1, 9] [nM]	Emax [1, 10] [%]	Emax ([1]; Table 21, Calu-6) [%]	PAMPA -Log Pe	cell-killing activity compared with Dxd [2]	EC50 [2, 11] [nM]	EC50 [2, 12] [nM]	EC50 ([2]; A-375, Table 21, A375) [nM]	Emax ([2]; A-375, Table 21, A375) [%]	Emax [2, 13] [%]	recovery [3] [%]	PAMPA -Log Pe [4]	Emax ([5]; MDA-MB-453, Table 28, payload) [%]	Emax ([6]; HCC1569, Table 28, payload) [%]	Emax [1, 8] [%]	EC50 [1, 14] [nM]	Emax [1, 14] [%]	other results
CC[C@@]1(O)C(=O)OCc2c1cc1n(c2=O)Cc2c-1nc1cc(F)c(C)c3c1c2[C@@H](NC(=O)C(C)(C)CO)CC3 [Compound 66, N-((1S,9S)-9-ethyl-5-fluoro-9-hydroxy-4-methyl-10,13-dioxo-2,3,9,10,13,15-hexahydro-1H,12H-benzo[de]pyrano[3′,4′:6,7]indolizino[1,2-b]quinolin-1-yl)-3-hydroxy-2,2-dimethylpropanamide]	stronger cell-killing activity than Dxd	0.3	0.3	0.3	97.3	97.3	5.89	stronger cell-killing activity than Dxd	1.1	1.1	1.1	99.9	99.9	79.7							
CC[C@@]1(O)C(=O)OCc2c1cc1n(c2=O)Cc2c-1nc1cc(F)c(C)c3c1c2[C@@H](NC(=O)CCO)CC3 [Compound 72]	less potent than Dxd	2	2	2	98.3	98.3	6.02	less potent than Dxd	4.4	4.4	4.4	99.9	99.9	48.1							
CC[C@@]1(O)C(=O)OCc2c1cc1n(c2=O)Cc2c-1nc1cc(F)c(C)c3c1c2[C@@H](NC(=O)CO)CC3 [DXd, reference compound]									2.8	2.7	2.8	100	100	95.2	5.89	98.7	93.4	98	1.2	98.6	EC50 ([5]; MDA-MB-453, Table 28, payload): 1.9 nM; EC50 ([6]; HCC1569, Table 28, payload): 2.9 nM; Emax ([1]; Calu-6, Table 21, Calu-6): 98%; Emax [1, 9]: 98.8%; EC50 [2, 15]: 3.2 nM
CC[C@@]1(O)C(=O)OCc2c1cc1n(c2=O)Cc2c-1nc1cc(F)c(C)c3c1c2[C@@H](N)CC3 [Exatecan, reference compound]			0.3						0.7					56	5.75	99.4	94.5	96.2	0.2	96.4	EC50 ([5]; Table 28, payload): 0.5 nM; EC50 ([6]; Table 28, payload): 0.5 nM; Emax [2, 11]: 99.9%; EC50 [2, 15]: 0.9 nM
CCOC(=O)Nc1ccc2c(c1)Oc1cc(NC(=O)OCc3ccc(NC(=O)[C@H](CCCNC(N)=O)NC(=O)[C@@H](NC(=O)[C@H](CP(=O)(O)O)NC(=O)CCOCCOCCOCCN4C(=O)CC(SC[C@H](NC(C)=O)C(=O)O)C4=O)C(C)C)cc3)ccc1C21OC(=O)c2ccccc21 (some centres unmarked) [NAcCys-17]																					cathepsin B mediated rhodamine release rate, rank [7]: NAcCys-15˜NAcCys-13 (benchmark)>NAcCys-14>NAcCys-17
